# Data taken from patent US20250289787A1, “HERBICIDAL 2-OXO-NICOTINIC ACID DERIVATIVES” (SYNGENTA CROP PROTECTION AG, priority 2022, published 2025).
# Key:
# Type in all cases: in vivo
# Design in all cases: key: 5=81-100%; 4=61-80%; 3=41-60%; 2=21-40%; 1=1-20%; 0=no damage to the plant; -=not tested
# [1] = system: Amaranthus palmeri (AMAPA); test: Pre-emergence test, herbicidal damage; conditions: 1000 g/ha unless otherwise stated, evaluated after 13 days, five-point scale
# [2] = system: Ipomoea hederacea (IPOHE); test: Pre-emergence test, herbicidal damage; conditions: 1000 g/ha unless otherwise stated, evaluated after 13 days, five-point scale
# [3] = system: Amaranthus retoflexus (AMARE); test: Pre-emergence test, herbicidal damage; conditions: 1000 g/ha unless otherwise stated, evaluated after 13 days, five-point scale
# [4] = system: Echinochloa crus-galli (ECHCG); test: Pre-emergence test, herbicidal damage; conditions: 1000 g/ha unless otherwise stated, evaluated after 13 days, five-point scale
# Setaria faberi (SETFA) [5] = test: Pre-emergence test, herbicidal damage; conditions: 1000 g/ha unless otherwise stated, evaluated after 13 days, five-point scale
# [6] = system: Ipomoea hederacea (IPOHE); test: Post-emergence test, herbicidal damage; conditions: sprayed after 8 days cultivation, 1000 g/ha unless otherwise stated, evaluated after 13 days, five-point scale
# Method: (§1) Seeds of a variety of test species are sown in standard soil in pots Amaranthus palmeri (AMAPA), (Amaranthus retoflexus (AMARE), Echinochloa crus-galli (ECHCG), Zea mays (ZEAMX), Ipomoea 5 hederacea (IPOHE), and Setaria faberi (SETFA). After 8 days cultivation under controlled conditions in a glasshouse (at 24° C./16° C., day/night; 14 hours light; 65% humidity), the plants are sprayed with an aqueous spray solution derived from the formulation of the technical active ingredient in acetone/water (50:50) solution containing 0.5% Tween 20 (polyoxyethelyene sorbitan monolaurate, CAS RN 9005-64-5). Compounds are applied at 1000 g/ha unless otherwise stated. The test plants are then grown in a glasshouse under controlled conditions in a glasshouse (at 24° C./16° C., day/night; 14 hours light; 65% humidity) and watered twice daily. After 13 days the test is evaluated for the percentage damage caused to the plant. The biological activities are shown in the following table on a five-point scale (5=81-100%; 4=61-80%; 3=41-60%; 2=21-40%; 1=1-20%; 0=no damage to the plant; -=not tested).
# [7] = system: Echinochloa crus-galli (ECHCG); test: Post-emergence test, herbicidal damage; conditions: sprayed after 8 days cultivation, 1000 g/ha unless otherwise stated, evaluated after 13 days, five-point scale
# Method: as §1
# [8] = system: Amaranthus palmeri (AMAPA); test: Post-emergence test, herbicidal damage; conditions: sprayed after 8 days cultivation, 1000 g/ha unless otherwise stated, evaluated after 13 days, five-point scale
# Method: as §1
# [9] = system: Amaranthus retoflexus (AMARE); test: Post-emergence test, herbicidal damage; conditions: sprayed after 8 days cultivation, 1000 g/ha unless otherwise stated, evaluated after 13 days, five-point scale
# Method: as §1
# Setaria faberi (SETFA) [10] = test: Post-emergence test, herbicidal damage; conditions: sprayed after 8 days cultivation, 1000 g/ha unless otherwise stated, evaluated after 13 days, five-point scale
# Method: as §1
# Zea mays (ZEAMX) [11] = test: Post-emergence test, herbicidal damage; conditions: sprayed after 8 days cultivation, 1000 g/ha unless otherwise stated, evaluated after 13 days, five-point scale
# Method: as §1
# Zea mays (ZEAMX) [12] = test: Pre-emergence test, herbicidal damage; conditions: 1000 g/ha unless otherwise stated, evaluated after 13 days, five-point scale
Structure (SMILES),"percentage damage caused to the plant, AMAPA [1]","percentage damage caused to the plant, IPOHE [2]","percentage damage caused to the plant, AMARE [3]","percentage damage caused to the plant, ECHCG [4]","percentage damage caused to the plant, SEFTA (Setaria faberi (SETFA) [5])","percentage damage caused to the plant, IPOHE [6]","percentage damage caused to the plant, ECHCG [7]","percentage damage caused to the plant, AMAPA [8]","percentage damage caused to the plant, AMARE [9]","percentage damage caused to the plant, SEFTA (Setaria faberi (SETFA) [10])","percentage damage caused to the plant, ZEAMX (Zea mays (ZEAMX) [11])","percentage damage caused to the plant, ZEAMX (Zea mays (ZEAMX) [12])"
"Cc1c(Br)c(-c2ccc(Cl)c(Cl)c2)c(C(=O)O)c(=O)n1Cc1ccc(C#N)cc1F [Compound 33, 5-bromo-1-[(4-cyano-2-fluoro-phenyl)methyl]-4-(3,4-dichlorophenyl)-6-methyl-2-oxo-pyridine-3-carboxylic acid]",3 (3=41-60%),1 (1=1-20%),3 (3=41-60%),1 (1=1-20%),1 (1=1-20%),1 (1=1-20%),1 (1=1-20%),3 (3=41-60%),3 (3=41-60%),1 (1=1-20%),1 (1=1-20%),1 (1=1-20%)
"Cc1cc(-c2ccc(Cl)c(Cl)c2)c(C(=O)O)c(=O)n1-c1ccc(Cl)cc1F [Compound 13, 1-(4-chloro-2-fluoro-phenyl)-4-(3,4-dichlorophenyl)-6-methyl-2-oxo-pyridine-3-carboxylic acid]",2 (2=21-40%),0,2 (2=21-40%),2 (2=21-40%),0,0,0,3 (3=41-60%),2 (2=21-40%),0,1 (1=1-20%),0
"Cc1[nH]c(=O)c(C(=O)O)c(-c2ccc(Cl)c(Cl)c2)c1C [Compound 9, 4-(3,4-dichlorophenyl)-5,6-dimethyl-2-oxo-1H-pyridine-3-carboxylic acid]",0,0,0,0,0,1 (1=1-20%),0,1 (1=1-20%),1 (1=1-20%),0,0,0
"Cc1c(Cl)c(-c2ccc(Cl)c(Cl)c2)c(C(=O)O)c(=O)n1-c1cccc(C(F)(F)F)c1F [Compound 23, 5-chloro-4-(3,4-dichlorophenyl)-1-[2-fluoro-3-(trifluoromethyl)phenyl]-6-methyl-2-oxo-pyridine-3-carboxylic acid]",4 (4=61-80%),0,4 (4=61-80%),1 (1=1-20%),1 (1=1-20%),1 (1=1-20%),1 (1=1-20%),4 (4=61-80%),4 (4=61-80%),1 (1=1-20%),1 (1=1-20%),0
"Cc1[nH]c(=O)c(C(=O)O)c(-c2ccc(Cl)c(Cl)c2)c1Br [Compound 1, 5-bromo-4-(3,4-dichlorophenyl)-6-methyl-2-oxo-1H-pyridine-3-carboxylic acid]",3 (3=41-60%),0,2 (2=21-40%),1 (1=1-20%),0,1 (1=1-20%),0,5 (5=81-100%),5 (5=81-100%),1 (1=1-20%),1 (1=1-20%),0
"Cc1c(Br)c(-c2ccc(Cl)c(Cl)c2)c(C(=O)O)c(=O)n1C [Compound 5, 5-bromo-4-(3,4-dichlorophenyl)-1,6-dimethyl-2-oxo-pyridine-3-carboxylic acid]",0,0,0,0,0,1 (1=1-20%),0,1 (1=1-20%),1 (1=1-20%),0,1 (1=1-20%),0
"Cc1[nH]c(=O)c(C(=O)O)c(-c2ccc(Cl)c(Cl)c2)c1Cl [Compound 2, 5-chloro-4-(3,4-dichlorophenyl)-6-methyl-2-oxo-1H-pyridine-3-carboxylic acid]",0,0,0,0,0,0,0,0,0,0,0,0
